Measured values taken from US10005817B2, “Peptide pharmaceuticals” (EUMEDERIS PHARMACEUTICALS, INC., priority 2012, dated 2018).

Legend:
GLP-1 R = target: T1, GLP-1 R (Mus musculus, UniProt O35659); assay: GLP-1 cellular assay, cAMP stimulation (murine cell line, Cerep); format: cell-based; conditions: n.c. = EC50 not calculable
T1 construct: GLP-1 (murine cell line) cellular assays
T1 sequence (O35659 22-463): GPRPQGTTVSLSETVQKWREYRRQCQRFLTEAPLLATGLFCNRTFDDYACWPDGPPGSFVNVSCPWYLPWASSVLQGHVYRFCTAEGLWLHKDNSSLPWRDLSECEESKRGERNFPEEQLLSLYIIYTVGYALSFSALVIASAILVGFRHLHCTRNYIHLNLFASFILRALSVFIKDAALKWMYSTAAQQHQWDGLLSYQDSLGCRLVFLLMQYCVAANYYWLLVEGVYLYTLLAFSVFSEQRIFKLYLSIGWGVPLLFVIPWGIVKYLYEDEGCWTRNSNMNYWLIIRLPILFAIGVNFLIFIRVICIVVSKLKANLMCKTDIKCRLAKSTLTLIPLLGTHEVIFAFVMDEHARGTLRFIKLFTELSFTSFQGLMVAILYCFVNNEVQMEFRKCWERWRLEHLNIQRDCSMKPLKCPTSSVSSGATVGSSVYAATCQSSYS
Experimental: Compounds were weighed precisely in an amount of approximately 1 mg and assayed in standard cellular assays (Cerep SA). The readout is the amount of cAMP generated in the cells treated with the test compounds, in either agonist or antagonist mode. […] The assays are described in Chicchi, G. G., et al. (1997) J Biol Chem 272: 7765-7769 and Runge, S., et al. (2003) Br J Pharmacol 138: 787-794.

db/db mice [1] = assay: db/db mice, blood glucose after s.c. dosing; format: in vivo, mouse; conditions: for Mean Blood Glucose: db/db mice, s.c., 300 nmole/kg
Experimental: The 60 female db/db B6BKS (D) Leprdb/J (strain 000697) mice for this study were approximately 8 to 9 weeks old at arrival (Jackson Laboratory, Bar Harbor, Me.). […] One group of 8 female mice served as the vehicle control and received the vehicle, 0.2% BSA in saline, pH 7.4. One additional group of 8 female mice received the positive control article, liraglutide, at a dose level of 50 nmoles/kg. The test articles, vehicle, and positive control article were administered on Day 1, at approximately 0, 7, and 24 hours during the study via subcutaneous injection at a dose volume of 6 mL/kg.
(§1) Clinical observations were conducted at receipt, prior to randomization, and daily from Days 1 to 5. Body weights were measured and recorded at receipt, prior to randomization, and daily from Days 1 to 5. Food consumption was measured and recorded daily from Days 1 to 5. Blood samples for glucose analysis were collected pretest (Day −3) and at 0, 1, 2, 4, 8, 10, 24, 48, 72, and 96 hours following the first dose on Day 1. At study termination all animals were euthanized and the carcasses were discarded without further evaluation.

db/db mice [2] = assay: db/db mice, body weight; format: in vivo, mouse; conditions: high dose (300 nmoles/kg), Days 2 and 3
Experimental: The 60 female db/db B6BKS (D) Leprdb/J (strain 000697) mice for this study were approximately 8 to 9 weeks old at arrival (Jackson Laboratory, Bar Harbor, Me.). The mice were randomized by weight and two treatment groups of 8 female mice each were administered the test articles, EU-A994, EU-A995, or EU-A1026, at dose levels of 100 or 300 nmoles/kg. One group of 8 female mice served as the vehicle control and received the vehicle, 0.2% BSA in saline, pH 7.4. One additional group of 8 female mice received the positive control article, liraglutide, at a dose level of 50 nmoles/kg. The test articles, vehicle, and positive control article were administered on Day 1, at approximately 0, 7, and 24 hours during the study via subcutaneous injection at a dose volume of 6 mL/kg.
as §1

Structure (SMILES)	EC50 (GLP-1 R) [nM]	Mean Blood Glucose (db/db mice [1]; 0 hr) [mg/dL]	Mean Blood Glucose (db/db mice [1]; 10 hr) [mg/dL]	Mean Blood Glucose (db/db mice [1]; 24 hr) [mg/dL]	Mean Blood Glucose (db/db mice [1]; 48 hr) [mg/dL]	Glucose levels vs vehicle (db/db mice [1]; high dose (300 nmoles/kg), at 10 and 24 hours)	body weight changes against vehicle (db/db mice [2])
CCCCCCCCCCCCO[C@@H]1O[C@H](C(=O)NCCCC[C@H](NC(=O)[C@@H]2CCCCNC(=O)CC[C@H](NC(=O)[C@H](CC(=O)O)NC(=O)[C@H](CC(C)C)NC(=O)[C@H](Cc3ccc(O)cc3)NC(=O)[C@H](CCCCN)NC(=O)[C@H](CO)NC(=O)[C@H](Cc3ccc(O)cc3)NC(=O)[C@H](CC(=O)O)NC(=O)[C@H](CO)NC(=O)[C@@H](NC(=O)[C@H](Cc3ccccc3)NC(=O)[C@@H](NC(=O)CNC(=O)[C@H](CCC(N)=O)NC(=O)C(C)(C)NC(=O)[C@@H](N)Cc3c[nH]cn3)[C@@H](C)O)[C@@H](C)O)C(=O)N[C@@H](CCCNC(=N)N)C(=O)N[C@@H](C)C(=O)N[C@@H](C)C(=O)N2)C(=O)N[C@@H](Cc2ccccc2)C(=O)NC(C)(C)C(N)=O)[C@@H](O)[C@H](O)[C@H]1O [EU-A455]	59	–	–	–	–	–	–
CCCCCCCCCCCCCCO[C@@H]1O[C@H](C(=O)NCCCC[C@H](NC(=O)[C@@H](NC(=O)[C@H](Cc2ccccc2)NC(=O)[C@H](CCC(=O)O)NC(=O)[C@@H]2CCCCNC(=O)CC[C@H](NC(=O)[C@H](CC(=O)O)NC(=O)[C@H](CC(C)C)NC(=O)[C@H](Cc3ccc(O)cc3)NC(=O)[C@H](CCCCN)NC(=O)[C@H](CO)NC(=O)[C@H](Cc3ccc(O)cc3)NC(=O)[C@H](CC(=O)O)NC(=O)[C@H](CO)NC(=O)[C@@H](NC(=O)[C@H](Cc3ccccc3)NC(=O)[C@@H](NC(=O)CNC(=O)[C@H](CCC(N)=O)NC(=O)C(C)(C)NC(=O)[C@@H](N)Cc3c[nH]cn3)[C@@H](C)O)[C@@H](C)O)C(=O)N[C@@H](CCC(N)=O)C(=O)N[C@@H](C)C(=O)N[C@@H](C)C(=O)N2)[C@@H](C)CC)C(=O)N[C@@H](Cc2c[nH]c3ccccc23)C(=O)N[C@@H](CC(C)C)C(=O)N[C@@H](CC(C)C)C(=O)N[C@@H](CCC(N)=O)C(=O)N[C@H](C(N)=O)[C@@H](C)O)[C@@H](O)[C@H](O)[C@H]1O [EU-A994]	–	554	242	209	385	significantly different from vehicle	Significant body weight changes
